Data on three compounds can be found in publication PMC13013135, “[^99mTc]Tc-PSMA-HSG for PSMA-targeted Hybrid Surgical Guidance: a new addition to the PSMA-I&S/I&T family” (European Journal of Nuclear Medicine and Molecular Imaging, 2025).

Data set [1] deals with PSMA expressing LNCaP cells. Set-up: method as in PMID 27635024, PMID 30237214. Conditions: 60 min, 37 °C, normalized to ([^125I]IBA)KuE; cited from earlier work.
The next data set has as its system PC3-Pip tumor slices. Description: Confocal fluorescence imaging of excised tumor specimens. The class given is in vivo, mouse. Here is the method:
After in vivo imaging, the tumors (n = 1 per condition) were excised and cut into 2 mm slices. Prior to imaging, slices were placed on a 35-mm culture dish containing a glass insert (MatTek Co.). Fluorescence confocal imaging was then performed using a Leica SP8 WLL microscope (Leica Microsystems). For assessment of tracer uptake Cy5 settings were used; λex = 633 nm, λem = 650–700 nm. Images were processed using accompanying LASX software (Leica Application Software Suite 4.8).

The subject of data set [2] is PC3-Pip xenografts in NSG mice. Description: Fluorescence imaging in mice with clinical-grade fluorescence endoscope. The class given is in vivo, mouse. Here is the method:
Fluorescence imaging of PC3-Pip xenografts in NSG mice (2 h p.i. at a PSMA-HSG dose of 1 nmol and 6 h p.i. at a ligand dose of 0.1 nmol, respectively; n = 1 per compound and condition) was performed using a clinical-grade fluorescence laparoscopy set-up (KARL STORZ Endoskope GMBh & Co. KG). Cy5-based tumor imaging was performed using D-light P system and a prototype modified IMAGE 1 S light source with integrated Cy5 filter (both KARL STORZ Endoskope GMBh & Co. KG). Images were recorded using integrated KARL STORZ software and image processing was performed using custom MATLAB software that provided a signal intensity-based representation of the signal-to-background ratio (SBR; [45, 46]).
PC-3 PIP xenografts were established by subcutaneous injection of 5 × 10^6 PC3-PIP cells/mouse using 8–12-week-old male NSG mice (in-house breeding, Dpt. of Oncology, University of Lausanne) as previously described. Tumors reached a size of 4-8 mm in diameter after 5-6 days and were then immediately used for the fluorescence imaging studies.

The nature of data set [3]: Photophysical characterization. The class given is physicochemical. Conditions: in a 5% human serum albumin solution. Here is the method: The determination of the quantum yield and molar extinction coefficient of PSMA-HSG were performed according to previously published procedures.
Of the free dye HOOC-(SO3)Cy5(SO3)-Methyl (Sulfo-Cy5), a 100 µM stock solution in PBS was prepared. From this, a dilution series comprising the following concentrations was prepared: 7.5 µM, 5 µM, 2.5 µM, 1 µM, 0.75 µM, 0.5 µM, 0.25 µM. Of these solutions, absorption spectra (n=3 per concentration) were recorded using a Shimadzu UV-1280 spectrometer (Shimadzu, Kyoto, Japan). The concentrations were plotted against the mean of the maximum absorbance per concentration. A trendline was fitted, with the regression coefficient x 10^6 representing the molar extinction coefficient (R^2 ≥ 0.9900) in M^-1.L^-1.cm^-1.
The brightness in (M^-1.L^-1.cm^-1) was calculated using the following formula:
Brightness =Quantum yield hybrid label*Molar extinction coefficient free dye

The next data set concerns LNCaP cells. Description: Fluorescence microscopy of ligand internalization. The class given is cell-based, human. Conditions: 100 nM. Here is the method: Competitive binding experiments (IC50) were carried out in accordance with an established protocol using PSMA-expressing LNCaP cells and ([^125I]I-BA)KuE as standard radioligand. Internalization kinetics of [^99mTc]Tc-PSMA-HSG (0.5 nM) were investigated in a dual tracer internalization assay using PSMA expressing LNCaP cells and ([^125I]I-BA)KuE (0.1 nM) as an internal reference. Non-specific binding/internalization was determined in the presence of 10 µM 2-PMPA. Furthermore, PSMA-HSG internalization into LNCaP cells was investigated using fluorescence microscopy (100 nM PSMA-HSG). Please see the Supplementary Material for experimental details.
Two days prior to the experiment, LNCaP cells (approximately 100.000 cells/well) were seeded on round glass coverslips placed in the bottoms of the wells of 24-well plates. After cell adhesion and expansion, the culture medium was removed by aspiration, and the cells were washed with HBSS (1% BSA). […]
Fluorescence images were acquired on a Zeiss Axio Observer Z1 inverted microscope using a Plan Apochromat 20x, N.A. 0.8, air, DIC objective or a Plan Apochromat 63x, N.A. 1.4, oil, DIC objective. […] Fluorescence illumination was provided by an X-Cite fluorescence lamp. […]

Another data set has as its target PSMA (Homo sapiens, UniProt Q04609). Also on record: Five patients with a diagnosis of initial (n = 4) or biochemical recurrence of (n = 1) histologically proven prostate cancer; from tissue; host or cells: prostate cancer patients: primary tumour, lymph nodes, resected tissue sections; method as in PMID 27635024, PMID 30237214. The settings on record: LNCaP cells, identical experimental conditions; cited from earlier work.

PSMA, sequence (Q04609 whole entry): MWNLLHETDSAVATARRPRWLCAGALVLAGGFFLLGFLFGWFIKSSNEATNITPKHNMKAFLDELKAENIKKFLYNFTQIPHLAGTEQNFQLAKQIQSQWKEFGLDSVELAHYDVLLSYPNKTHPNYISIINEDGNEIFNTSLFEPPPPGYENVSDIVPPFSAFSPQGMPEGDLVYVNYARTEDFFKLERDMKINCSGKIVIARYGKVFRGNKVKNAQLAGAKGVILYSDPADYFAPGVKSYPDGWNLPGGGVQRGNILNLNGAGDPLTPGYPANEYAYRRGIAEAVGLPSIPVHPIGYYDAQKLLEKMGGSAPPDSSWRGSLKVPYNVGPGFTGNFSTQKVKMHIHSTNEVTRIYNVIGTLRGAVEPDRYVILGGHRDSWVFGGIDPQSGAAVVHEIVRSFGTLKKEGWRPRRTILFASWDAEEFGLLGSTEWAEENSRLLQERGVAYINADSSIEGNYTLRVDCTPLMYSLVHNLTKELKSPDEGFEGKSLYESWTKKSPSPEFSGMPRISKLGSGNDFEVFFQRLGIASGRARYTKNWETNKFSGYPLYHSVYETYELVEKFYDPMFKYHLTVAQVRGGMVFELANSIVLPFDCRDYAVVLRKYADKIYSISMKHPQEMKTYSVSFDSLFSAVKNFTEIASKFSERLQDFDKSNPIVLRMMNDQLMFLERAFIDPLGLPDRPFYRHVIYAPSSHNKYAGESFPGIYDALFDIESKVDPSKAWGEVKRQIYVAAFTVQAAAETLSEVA

As to `O=C(O)CC[C@H](NC(=O)NC(CCCCNC(=O)c1ccc([125I])cc1)C(=O)O)C(=O)O` (stereo partly drawn) [([^125I]IBA)KuE], the “internalization [% of reference]” value in data set [1] is given as 100 % of reference.
For `CC(=O)SCC(=O)N[C@H](CO)C(=O)N[C@H](CO)C(=O)N[C@H](CO)C(=O)N[C@H](CCCCNC(=O)CCCCCN1/C(=C/C=C/C=C/C2=[N+](C)c3ccc(S(=O)(=O)[O-])cc3C2(C)C)C(C)(C)c2cc(S(=O)(=O)O)ccc21)C(=O)N[C@H](Cc1ccc(O)cc1)C(=O)N[C@H](Cc1ccc2ccccc2c1)C(=O)N[C@H](CCCCNC(=O)CCCCCCC(=O)NCCCC[C@H](NC(=O)N[C@@H](CCC(=O)O)C(=O)O)C(=O)O)C(=O)O` [PSMA-HSG], the “confocal fluorescence microscopy of tumor slices” value was “strong and homogenous PSMA-HSG fluorescence” in the data set with PC3-Pip tumor slices (2 h p.i./1 nmol); “detectable, but weak fluorescence signal” with PC3-Pip tumor slices (6 h p.i./0.1 nmol (low dose/late timepoint)). In addition, the “in vivo tumor fluorescence, Cy5 fluorescence endoscope” value in data set [2] (0.1 nmol, 6 h p.i.) is reported as “only a weak fluorescence signal”; in data set [2] (1 nmol, 2 h p.i.) it was “high relative PSMA-HSG fluorescence intensity”. This compound also had a quantum yield in data set [3] of 26%. Further, in the data set on LNCaP cells (30 min, 4 °C), the “membrane binding, fluorescence microscopy” value is “intense and PSMA-specific membrane staining”. Further, in the data set on LNCaP cells (60 min, 37 °C), the “internalization, fluorescence microscopy” value was “efficient ligand translocation into the cells”.
On to “PSMA-I&S: non-fluorescent parent compound, unlabeled”, for which the concentration for half-maximal inhibition (IC50) with PSMA is 39.7 ± 1.2 nM.

As a reminder, the IC50 is the concentration that gives 50% inhibition.
